From US20040052845A1, “Hydrogel-driven drug dosage form” (priority 2003, published 2004)
Where a name gives a salt, the structure may show the parent alone.

Assay: Aqueous solubility of the drug

Row | Compound | solubility (at pH 4) [mgA/mL] | solubility (at pH 7) [mg/mL]
1 | 4-[3-[4-(2-methylimidazol-1-yl) phenylthio] phenyl]-3,4,5,6-tetrahydro-2H-pyran-4-carboxamide hemifumarate [Drug 3] | 3.7 | 
2 | CN[C@H]1CC[C@@H](c2ccc(Cl)c(Cl)c2)c2ccccc21 [Drug 2, sertraline HCl] |  | 0.2
